Data taken from patent US20080039816A1, “Carbohydrate-Encapsulated Quantum Dots for Bilogical Imaging” (The Government of the United States of America as …, priority 2004, published 2008).

Test: Storage stability of thiol ligands (dimerization to disulfide)
Format: physicochemical
Experimental: In a second, alternative approach for hydrolysis, the debenzylidinated thioester (300 mg) was dissolved in methanol (5 ml). […] Air was bubbled through the solution and the solution was stirred at room temperature and allowed to react for 24 hours. […] The Thomsen-Friedenreich-disulfide of formula VII (130 mg) was then dissolved in distilled water (1 ml) and degassed with argon for 20 minutes. Dithiothreitol (130 mg) was added and the solution allowed to react for 20 minutes. The excess dithiothreitol was then removed by several extractions with ethyl acetate. The residue was then purified by reverse phase flash chromatography on a C-18 column with an aqueous solution of methanol (10%-40% (v/v)) to yield the Thomsen-Friedenreich-thiol of formula VI.
After 30 min, the reaction was carefully neutralized with strongly acidic ion-exchange resin Amberlite®-120, filtered and concentrated. Purification was accomplished on a Strata® SI-1 silica gel cartridge eluting with 20% MeOH in CH2Cl2.

CC(=O)NC1C(OCCCCCS)OC(CO)C(O)C1OC1OC(CO)C(O)C(O)C1O (centres unmarked) [formula 3]
stability upon standing at room temperature (room temperature): oxidizes to the Thomsen-Friedenreich-disulfide of formula VII | storage stability (dimerization) (stored at −20° C. (under argon)): without significant dimerization for weeks
